# Experimental data from patent US20170267727A1, “Conjugates of pH Low Insertion Peptide and Monomethyl Auristatins in the Treatment of Solid Tumors” (Lehigh University, priority 2016, published 2017).
# Positions of bridges follow the written chain, without caps; N, C: chain ends. Non-standard residues stand in square brackets, D forms with d. Chains are numbered I, II in the order given. *: point of attachment. Dolaproine = CO[C@@H]([C@@H]1CCCN1)[C@@H](C)C(=O)O; Dil = CC[C@H](C)[C@H](NC)[C@@H](CC(=O)O)OC; X1 = C[C@@H](N*)[C@@H](O)c1ccccc1; NMeV = CN[C@H](C(=O)O)C(C)C; Mpa = O=C(O)CCS
# System: HeLa cells
# Experiment: Anti-proliferation Assay (2 hours treatment at pH 7.4 or 5.0, 72 hours growth, MTT)
# Procedure: FIG. 3A, FIG. 3C and FIG. 3E show HeLa cells treated with pHLIP(WT)-MMAE, pHLIP(D25E)-MMAE, and MMAE(linker), respectively. FIG. 3B, FIG. 3D and FIG. 3F show MDA-MB-231 cells treated with pHLIP(WT)-MMAE, pHLIP(D25E)-MMAE, and MMAE(linker), respectively. Black columns represent cells treated at pH 7.4 and cells treated at low pH are shown in grey. For each condition, 3,000 cells/well (96-well plate) were seeded, allowed to adhere overnight, treated for 2 hours, washed once with media and grown for 72 hour in complete medium at physiologic pH. Cell viability was assessed with the MTT assay. All measurements were normalized to the media control (0 μM, pH 7.4), as 100% cell viability. Results are shown as mean±SD (n=6-9).
# HeLa cells treated with pHLIP(WT)-MMAF (FIG. 9A), pHLIP(D25E)-MMAF (FIG. 9B), pHLIP(P20G)-MMAF (FIG. 9C), and pHLIP(R11Q)-MMAF (FIG. 9D). Circles represent cells treated at pH 7.4 and squares represent cells treated at pH 5.0. Results are shown as the mean±SEM (n=6-9).
# Anti-proliferation Assay. HeLa and MDA-MB-231 cells were seeded in 96-well plates at a density of 3,000 cells/well and incubated overnight. Before treatment, construct aliquots were solubilized in an appropriate volume of DMEM without FBS (pH 7.4)—so that upon pH adjustment the desired treatment concentration is obtained—and gently sonicated for 30-60 seconds using a bath sonicator (Branson Ultrasonics). After removal of cell media, this treatment solution was added to each well and incubated at 37° C. for 5-10 minutes. The pH was then adjusted to the desired value using a pre-established volume of DMEM, pH 2.0 buffered with citric acid (final volume=50 μL) and the plate was incubated at 37° C. for 2 hours. After treatment, the media was removed, cells were washed once with 100 μL of complete DMEM, and 100 μL of complete medium was added to each well before returning the plate to the incubator. Treatment solutions were collected and their pH values measured using a micro-combination pH probe (Microelectrodes, Inc.). […] Cell viability was determined after 72 hours using the colorimetric MTT assay. Briefly, 10 μL of a 5 mg/mL MTT stock solution was added to the treated cells and incubated for 2 hours at 37° C. The resulting formazan crystals were solubilized in 200 μL DMSO and the absorbance measured at 580 nm using an Infinite 200 PRO microplate reader (Tecan). Cell viability was calculated against control cells treated with media at physiologic pH.
# Inhibition of Cell Proliferation. The ability of pHLIP to move MMAE across the cell membrane and to inhibit cancer cell proliferation in concentration and pH-dependent manners was evaluated. Cell treatments for both pHLIP(WT)-MMAE and pHLIP(D25E)-MMAE constructs were carried out with conjugate concentrations ranging from 1.25 to 10 μM at either pH 7.4 or 5.0. After a 2-hour incubation at 37° C., the treatment media was replaced by fresh media, and cells were grown for an additional 72 hours at normal pH before assessing cell viability using the MTT assay. […] This treatment protocol is quite stringent when compared to the typical multi-days exposure treatments used with free drugs (FIG. 6A and FIG. 6B).
substance,measurement,setting,value
I: H-AAEQNPIYWARYADWLFTTPLLLLDLALLVDADEGTCG-OH / II: [Mpa][NMeV]V[Dil][Dolaproine]-X1 (disulfide I:37-II:1) [pHLIP(WT)-MMAE],effect on cell proliferation,"pH 7.4, same conditions (1.25 to 10 μM)",no or a moderate effect on cell proliferation
same,cytotoxicity,"physiological pH, 5 μM",only marginal cytotoxicity
